Reference: patent US20250352520A1, “USE OF DEXPRAMIPEXOLE FOR THE TREATMENT OF EOSINOPHILIC COPD” (Areteia Therapeutics, Inc., priority 2024, published 2025)

Details: Week 12; >=50% AEC reduction at Week 16

CCCN[C@@H]1CCc2nc(N)sc2C1 [Dexpramipexole, (6R)-2-amino-4,5,6,7-tetrahydro-6-(propylamino)benzothiazole]
Pre-BD FEF25-75 % change from baseline, Max: 14% | Pre-BD FEF25-75 % change from baseline, Mean ± SD: 6.3 ± 8.24% | Pre-BD FEF25-75 % change from baseline, Median: 6.8% | Pre-BD FEF25-75 % change from baseline, Min: −2% | Pre-BD FEF25-75 % change from baseline, Q1: −2% | Pre-BD FEF25-75 % change from baseline, Q3: 14% | Pre-BD FEF25-75 Observed, Max: 900 mL/s | Pre-BD FEF25-75 Observed, Mean ± SD: 640.0 ± 351.57 mL/s | Pre-BD FEF25-75 Observed, Median: 780.0 mL/s | Pre-BD FEF25-75 Observed, Min: 240 mL/s | Pre-BD FEF25-75 Observed, Q1: 240 mL/s | Pre-BD FEF25-75 Observed, Q3: 900 mL/s | Pre-BD FEF25-75 change from baseline, Max: 50 mL/s | Pre-BD FEF25-75 change from baseline, Mean ± SD: 20.0 ± 36.06 mL/s | Pre-BD FEF25-75 change from baseline, Median: 30.0 mL/s | Pre-BD FEF25-75 change from baseline, Min: -20 mL/s | Pre-BD FEF25-75 change from baseline, Q1: -20 mL/s | Pre-BD FEF25-75 change from baseline, Q3: 50 mL/s | Pre-BD FEV1 % change from baseline, Max: 37% | Pre-BD FEV1 % change from baseline, Mean ± SD: 25.3 ± 19.37% | Pre-BD FEV1 % change from baseline, Median: 36. % | Pre-BD FEV1 % change from baseline, Min: 3% | Pre-BD FEV1 % change from baseline, Q1: 3% | Pre-BD FEV1 % change from baseline, Q3: 37% | Pre-BD FEV1 Observed, Max: 1780 mL | Pre-BD FEV1 Observed, Mean ± SD: 1496.7 ± 448.14 mL | Pre-BD FEV1 Observed, Median: 1730.0 mL | Pre-BD FEV1 Observed, Min: 980 mL | Pre-BD FEV1 Observed, Q1: 980 mL | Pre-BD FEV1 Observed, Q3: 1780 mL | Pre-BD FEV1 change from baseline, Max: 480 mL | Pre-BD FEV1 change from baseline, Mean ± SD: 263.3 ± 215.02 mL | Pre-BD FEV1 change from baseline, Median: 260.0 mL | Pre-BD FEV1 change from baseline, Min: 50 mL | Pre-BD FEV1 change from baseline, Q1: 50 mL | Pre-BD FEV1 change from baseline, Q3: 480 mL | Pre-BD FVC % change from baseline, Max: 18% | Pre-BD FVC % change from baseline, Mean ± SD: 12.0 ± 5.17% | Pre-BD FVC % change from baseline, Median: 11.1% | Pre-BD FVC % change from baseline, Min: 7% | Pre-BD FVC % change from baseline, Q1: 7% | Pre-BD FVC % change from baseline, Q3: 18% | Pre-BD FVC Observed, Max: 2800 mL | Pre-BD FVC Observed, Mean ± SD: 2690.0 ± 181.93 mL | Pre-BD FVC Observed, Median: 2790.0 mL | Pre-BD FVC Observed, Min: 2480 mL | Pre-BD FVC Observed, Q1: 2480 mL | Pre-BD FVC Observed, Q3: 2800 mL | Pre-BD FVC change from baseline, Max: 370 mL | Pre-BD FVC change from baseline, Mean ± SD: 280.0 ± 90.00 mL | Pre-BD FVC change from baseline, Median: 280.0 mL | Pre-BD FVC change from baseline, Min: 190 mL | Pre-BD FVC change from baseline, Q1: 190 mL | Pre-BD FVC change from baseline, Q3: 370 mL | Pre-BD Peak Flow % change from baseline, Max: 82% | Pre-BD Peak Flow % change from baseline, Mean ± SD: 31.8 ± 45.54% | Pre-BD Peak Flow % change from baseline, Median: 21.9% | Pre-BD Peak Flow % change from baseline, Min: −8% | Pre-BD Peak Flow % change from baseline, Q1: −8% | Pre-BD Peak Flow % change from baseline, Q3: 82% | Pre-BD Peak Flow Observed, Max: 285 L/min | Pre-BD Peak Flow Observed, Mean ± SD: 208.7 ± 66.53 L/min | Pre-BD Peak Flow Observed, Median: 178.0 L/min | Pre-BD Peak Flow Observed, Min: 163 L/min | Pre-BD Peak Flow Observed, Q1: 163 L/min | Pre-BD Peak Flow Observed, Q3: 285 L/min | Pre-BD Peak Flow change from baseline, Max: 128 L/min | Pre-BD Peak Flow change from baseline, Mean ± SD: 48.7 ± 72.45 L/min | Pre-BD Peak Flow change from baseline, Median: 32.0 L/min | Pre-BD Peak Flow change from baseline, Min: -14 L/min | Pre-BD Peak Flow change from baseline, Q1: -14 L/min | Pre-BD Peak Flow change from baseline, Q3: 128 L/min
